How the values were obtained:
IL-2 = IL-2 relative to DMSO; assay type: cell-based
[1] = Viability relative to DMSO; assay type: cell-based; parameters: concentration or dose not given beside the values
[2] = biological target: thalidomide binding domain (TBD) of cereblon (Homo sapiens, UniProt Q96SW2); experiment: Cereblon binding (DSF, FP/FI); settings: for inhibition at 200 µM: read-out: Cereblon Binding (≥50% inhibition at 200 μM)
Description: Several libraries are available for screening inhibitors. Virtual analysis was formulated and then theoretical design of chemical test kit and virtual screen of test kit were carried out. Physical binding studies were also completed for the initial compounds using DSF and FP assays after they are fully tested. TEST KITs that represent the compounds identified from each of the available chemical libraries based on virtual chemical structures were also made.

thalidomide binding domain (TBD) of cereblon, sequence (Q96SW2 318-426 limits assumed): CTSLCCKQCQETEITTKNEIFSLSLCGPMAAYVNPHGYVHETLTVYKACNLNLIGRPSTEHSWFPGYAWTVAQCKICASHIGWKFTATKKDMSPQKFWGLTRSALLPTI

SMILES	IL-2 (%) (Relative to DMSO) (IL-2)	viability [1] [%]	inhibition at 200 µM [2] [%]	Cereblon Binding (≥50% inhibition at 200 μM) [2]
Cc1nc2cccc(N)c2c(=O)n1C1CCC(=O)NC1=O (stereo not shown)	283.4	84.4	> 50	
CNc1ccccc1C(=O)NCCn1ccc(=O)[nH]c1=O	158.7	97	> 50	
O=C1NC(=O)c2ccccc21	110.8	92.4		No
O=C1CCC(NS(=O)(=O)c2cccc([N+](=O)[O-])c2)C(=O)N1 (stereo not shown)	143.7	80		Yes*
CCNc1cccc(S(=O)(=O)NC2CCC(=O)NC2=O)c1 (stereo not shown)	124.4	100		Yes*
CNc1ccccc1C(=O)NCCN1CCC(=O)NC1=O	167.5	101		Yes*
COC(=O)c1ccccc1NC(=O)[C@H](CC(=O)NC1CCC(=O)NC1=O)NC(=O)OC(C)(C)C (stereo partly shown)	25.0	85.6		Yes*
Nc1cc(Cl)ccc1C(=O)NCCN1CCC(=O)NC1=O	14.1	78.7		Yes*
O=C1CCC(N2CCc3ccc([N+](=O)[O-])cc3C2)C(=O)N1 (stereo not shown)	23.0	84.2		Yes*
O=C1CCC(N2CCc3ccc(O)cc3C2)C(=O)N1 (stereo not shown)	32.2	102		Yes*
O=C1CCC(N2CCCC(c3ccccc3)C2)C(=O)N1 (stereo not shown)	45.3	92.1		Yes*
O=C1CCC(NCCNC(=O)c2ccccc2)C(=O)N1 (stereo not shown)	46.7	68.2		Yes*
O=C1CCC(=O)N1	199.7	75.3	> 50	
Cn1cncc1C(=O)NC1CCC(=O)NC1=O (stereo not shown)	148.0	95.3	> 50	
O=C1CCC(NCc2ccco2)C(=O)N1 (stereo not shown)	136.9	95.9	> 50	
Nc1cccc2c1CN([C@H]1CC(=O)NC1=O)C2=O	124.9			No
Nc1ccccc1S(=O)(=O)NC1CCC(=O)NC1=O (stereo not shown)	54.7	99.1		Yes*
CC(C)[C@H](NC(=O)c1ccccc1)C(=O)NC1CCC(=O)NC1=O (stereo partly shown)	84.5	99.1		Yes*
O=C1CCC(NS(=O)(=O)c2ccc([N+](=O)[O-])cc2)C(=O)N1 (stereo not shown)	56.3	93.4		Yes*

SMILES	IL-2 (%) (Relative to DMSO) (IL-2)	viability [1] [%]	inhibition at 200 µM [2] [%]	Cereblon Binding (≥50% inhibition at 200 μM) [2]
O=C1CCC(N2CCc3ccccc3C2)C(=O)N1 (stereo not shown)	105.4	99.5		Yes*
O=C1CCC(N2CCc3ccccc32)C(=O)N1 (stereo not shown)		98.7		
O=C1CCC(N2Cc3ccccc3C2)C(=O)N1 (stereo not shown)	69.0	84.8		Yes*
O=c1ccn(CCCc2ccccc2)c(=O)[nH]1	99.7	93.1		Yes*
O=c1ccn(Cc2ccccc2)c(=O)[nH]1	88.2	79.5		Yes*
O=c1ccn(CCNS(=O)(=O)c2ccccc2)c(=O)[nH]1	90.8	77.8		Yes*
O=c1ccn(CCCCc2ccccc2)c(=O)[nH]1	101.8	86.4		Yes*
O=c1ccn(CCCc2ccc(Cl)cc2)c(=O)[nH]1	93.9	90.7		Yes*
CNc1ccccc1C(=O)NCCn1cc(F)c(=O)[nH]c1=O	75.1	79.2		Yes*
Nc1ccccc1C(=O)NCCn1cc(F)c(=O)[nH]c1=O	109.0	89.7		Yes*
COc1ccc2c(c1)CCN(C1CCC(=O)NC1=O)C2 (stereo not shown)	79.0	74.4		Yes*
O=C1CCC(NS(=O)(=O)c2ccc3c(c2)OCCCO3)C(=O)N1 (stereo not shown)	61.6	73.6		Yes*
Nc1cc(Cl)ccc1C(=O)NCCn1ccc(=O)[nH]c1=O	67.3	70.4		Yes*
Nc1ccc(Cl)cc1C(=O)NCCn1ccc(=O)[nH]c1=O	51.2	74.8		Yes*
Cc1ccc(N)c(C(=O)NCCn2ccc(=O)[nH]c2=O)c1	83.7	75.2		Yes*
Nc1cccc(F)c1C(=O)NCCn1ccc(=O)[nH]c1=O	107.0	95		Yes*
O=C1CCC(N2CCc3ccc(Cl)cc3C2)C(=O)N1 (stereo not shown)	69.9	93.2		Yes*
Nc1ccc2c(c1)CCN(C1CCC(=O)NC1=O)C2 (stereo not shown)	54.6	95.8		Yes*
Nc1cccc2c1CN(C1CCC(=O)NC1=O)C2=O (stereo not shown) [drawing 75]		99.9		

Reference: patent publication US12564583B2, “Small molecules against cereblon to enhance effector T cell function” (H. LEE MOFFITT CANCER CENTER AND RESEARCH INSTITUTE, INC., priority 2016, dated 2026)
